Laboratory results: patent US20260035367A1 (Celgene Corporation, priority 2021, published 2026)
Read-outs that look alike come from different tables or passages of the source.

What was measured:
[1] = biological target: T1, Recombinant human PKC-theta (His-tagged 362-706) (Homo sapiens, UniProt Q04759); test: PKC-theta inhibition assay (HTRF KinEASE kit); assay type: biochemical; conditions: ATP 6.5 μM, STK substrate 525 nM
T1 construct: Recombinant human PKC-theta (His-tagged 362-706); His
Method in brief: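 IC50 values were from 4-parameter logistic fits of percent inhibition, based on acceptor/donor HTRF ratios over 10 semi-log compound doses. Kinase reactions, started with substrate plus ATP, ran 30 min at 25 °C in buffer supplemented with 10 mM MgCl2, 1 mM DTT and 0.1% Tween 20; detection lasted 2 h.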

[2] = biological target: T2, Recombinant human PKC-delta (His-tagged 345-676) (Homo sapiens, UniProt Q05655); test: PKC-delta inhibition assay (HTRF KinEASE kit); assay type: biochemical; conditions: ratio, PKC-theta vs PKC-delta HTRF; for PKC-theta/PKC-delta selectivity (binned): binned A to G
T2 construct: PKC-delta (His-tagged 345-676); His
Method: PKC-theta and PKC-delta biochemical activities were measured using the PKC-theta HTRF KinEASEkit kit, according to manufacturer's instructions (Cisbio, catalogue number 61ST1PEJ). Briefly, the kinase buffer component of the kit was supplemented with 10 mM MgCl2, 1 mM DTT and 0.1% Tween 20. […] The streptavidin_XL665 and STK antibody-cryptate detection reagents were mixed according to the manufacturer's instructions. Test compounds were diluted in DMSO in a series of 10 semi-log step doses; 10 nL of each compound dose were dispensed in 384 well plates. […] The reaction was started by addition of the substrate and ATP and incubated at 25° C. for 30 minutes or 20 minutes for the PKC-theta and PKC-delta assays, respectively. The detection reagents were added, and the plate was incubated in the dark for 2 hours. […] The ratio of acceptor and donor emission signals was calculated for each well.

[3] = tested on: IL-2 secretion by human effector memory T cells (TEM); test: Effector memory T cells IL-2 release assay (CD3/CD28 stimulation, HTRF IL-2 detection); assay type: cell-based; conditions: Homo sapiens, T-cell, 24 h
Method in brief: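 IL-2 released into the supernatant was quantified by HTRF after 24 h at 37 °C in 5% CO2. The cells were stimulated primary human TEM from donor buffy coats, treated with a 10-point semi-log compound series (0.1% DMSO final, triplicates).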

[4] = binned A to H, read-out: PKC-theta HTRF pIC50 (binned) (converted)
[5] = read-out: PKC-theta HTRF pIC50 (converted)
[6] = binned A to G, read-out: PKC-theta IL2 pIC50 (binned) (converted)
[7] = read-out: PKC-theta IL2 pIC50 (converted)

T2 sequence (Q05655 345-676): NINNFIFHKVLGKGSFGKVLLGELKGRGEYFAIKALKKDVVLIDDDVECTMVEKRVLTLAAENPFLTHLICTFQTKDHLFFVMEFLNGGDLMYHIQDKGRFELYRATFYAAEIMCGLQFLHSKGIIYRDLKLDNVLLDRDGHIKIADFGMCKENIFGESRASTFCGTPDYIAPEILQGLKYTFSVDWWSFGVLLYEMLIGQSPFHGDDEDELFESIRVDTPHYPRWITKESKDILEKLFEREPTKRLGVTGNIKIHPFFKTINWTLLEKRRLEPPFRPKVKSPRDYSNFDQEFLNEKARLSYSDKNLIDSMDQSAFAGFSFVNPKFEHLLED
T1 sequence (Q04759 362-706): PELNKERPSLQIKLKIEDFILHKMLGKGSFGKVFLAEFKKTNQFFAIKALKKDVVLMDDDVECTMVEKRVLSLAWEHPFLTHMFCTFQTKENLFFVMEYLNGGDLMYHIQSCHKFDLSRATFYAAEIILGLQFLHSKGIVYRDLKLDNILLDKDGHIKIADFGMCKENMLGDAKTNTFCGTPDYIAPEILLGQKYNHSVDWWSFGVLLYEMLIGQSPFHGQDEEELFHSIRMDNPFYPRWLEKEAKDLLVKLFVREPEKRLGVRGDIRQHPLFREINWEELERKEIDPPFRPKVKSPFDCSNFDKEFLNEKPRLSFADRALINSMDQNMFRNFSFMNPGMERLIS

Compound	IC50 [1, 4]	IC50 [1, 5]	PKC-theta/PKC-delta selectivity [2]	PKC-theta/PKC-delta selectivity (binned) [2]	IC50 [3, 6]	IC50 [3, 7]
C[C@@H]1CN(c2cc(Cl)cc(-c3ccnc4c3C(C)(O)C(=O)N4)c2)CCN1 (stereo partly drawn) [Example 76]	31.6 to 100 nM	50.1 nM	11	D (a ratio of between 10 and 20)	316 to 1000 nM	794 nM
C[C@@H]1CN(c2cc(-c3ccnc4c3C(C)(O)C(=O)N4)cc(C(F)(F)F)c2)CCN1 (stereo partly drawn) [Example 77]	31.6 to 100 nM	100 nM	12	D (a ratio of between 10 and 20)	> 1000 nM	2510 nM
C[C@H]1CN(c2cc(-c3ccnc4c3C(C)(O)C(=O)N4)cc(C(F)(F)F)c2)CCN1 (stereo partly drawn) [Example 78]	10 to 31.6 nM	15.8 nM	11	D (a ratio of between 10 and 20)	100 to 316 nM	158 nM
CC1(C)C(=O)Nc2ncc(Cl)c(-c3cc(F)cc(N4CCNCC4)c3)c21 [Example 79]	31.6 to 100 nM	39.8 nM	2	F (a ratio of between 1 and 5)	316 to 1000 nM	794 nM
CC1(O)C(=O)Nc2nccc(-c3cc(C(F)(F)F)cc(N4CCNCC4)n3)c21 (stereo not drawn) [Example 80]	3.16 to 10 nM	6.31 nM	12	D (a ratio of between 10 and 20)	31.6 to 100 nM	79.4 nM
CC1(C)C(=O)Nc2nccc(-c3cc(C(F)(F)F)cc(N4CCN[C@@H](CO)C4)n3)c21 [Example 83]	1 to 3.16 nM	3.16 nM	20	D (a ratio of between 10 and 20)	31.6 to 100 nM	79.4 nM
CC1(C)C(=O)Nc2nccc(-c3cc(C(F)(F)F)cc(N4CCNC5(CC5)C4)n3)c21 [Example 84]	3.16 to 10 nM	7.94 nM	14	D (a ratio of between 10 and 20)	316 to 1000 nM	316 nM
CC1(C)C(=O)Nc2nccc(-c3cc(C(F)(F)F)cc(N4CC5CC4CN5)n3)c21 (stereo not drawn) [Example 85]	10 to 31.6 nM	20 nM	20	D (a ratio of between 10 and 20)	316 to 1000 nM	316 nM
CC1(C)C(=O)Nc2nccc(-c3cc(OC(F)F)cc(N4CCNCC4)n3)c21 [Example 86]	31.6 to 100 nM	31.6 nM	10	E (a ratio of between 5 and 10)	316 to 1000 nM	501 nM
CC1(C)C(=O)Nc2nccc(-c3cc(C(F)F)cc(N4CCNCC4)n3)c21 [Example 87]	3.16 to 10 nM	6.31 nM	10	D (a ratio of between 10 and 20)	100 to 316 nM	100 nM
CC1(C)C(=O)Nc2nccc(-c3cc(C(F)(F)F)nc(N4CCNCC4)n3)c21 [Example 98]	10 to 31.6 nM	20 nM	15	D (a ratio of between 10 and 20)	100 to 316 nM	316 nM
CN1CCN(c2cc(C(F)(F)F)cc(-c3ccnc4c3C(C)(C)C(=O)N4)n2)CC1 [Example 99]	10 to 31.6 nM	31.6 nM	22	C (a ratio of between 20 and 30)	316 to 1000 nM	794 nM
CC1(C)C(=O)Nc2nccc(-c3cc(C(F)(F)F)cc(NC4CCNC4)n3)c21 (stereo not drawn) [Example 100]	31.6 to 100 nM	63.1 nM	30	B (a ratio of between 30 and 50)	> 1000 nM	5010 nM
C[C@H]1CNCCN1c1cc(C(F)(F)F)cc(-c2ccnc3c2C(C)(C)C(=O)N3)n1 [Example 101]	3.16 to 10 nM	6.31 nM	12	D (a ratio of between 10 and 20)	31.6 to 100 nM	100 nM
C[C@@H]1CNCCN1c1cc(C(F)(F)F)cc(-c2ccnc3c2C(C)(C)C(=O)N3)n1 [Example 102]	1 to 3.16 nM	1.58 nM	14	D (a ratio of between 10 and 20)	10 to 31.6 nM	20 nM
O=C1Nc2nccc(-c3cc(C(F)(F)F)cc(N4CCNCC4)n3)c2C12CCCC2 [Example 103]	10 to 31.6 nM	15.8 nM	6	E (a ratio of between 5 and 10)	100 to 316 nM	100 nM
C[C@@H]1CN(c2ccc(Cl)c(-c3ccnc4c3[C@](C)(O)C(=O)N4)c2)CCN1 [Example 106]	316 to 1000 nM	1000 nM	10	D (a ratio of between 10 and 20)	> 1000 nM	10000 nM
C[C@H]1CN(c2ccc(Cl)c(-c3ccnc4c3[C@](C)(O)C(=O)N4)c2)CCN1 [Example 107]	31.6 to 100 nM	63.1 nM	7	E (a ratio of between 5 and 10)	316 to 1000 nM	501 nM
CCC1(O)C(=O)Nc2nccc(-c3cc(C(F)(F)F)cc(N4CCN[C@@H](C)C4)n3)c21 (stereo partly drawn) [Example 111]	3.16 to 10 nM	5.01 nM	17	D (a ratio of between 10 and 20)	100 to 316 nM	126 nM
COC1(C)C(=O)Nc2nccc(-c3cc(C(F)(F)F)cc(N4CCN[C@@H](C)C4)n3)c21 (stereo partly drawn) [Example 112]	10 to 31.6 nM	15.8 nM	20	C (a ratio of between 20 and 30)	100 to 316 nM	251 nM
CCC1(O)C(=O)Nc2nccc(-c3cc(Cl)cc(N4CCN[C@@H](C)C4)n3)c21 (stereo partly drawn) [Example 113]	1 to 3.16 nM	3.16 nM	22	C (a ratio of between 20 and 30)	31.6 to 100 nM	79.4 nM
CCC1(C)C(=O)Nc2nccc(-c3cc(C(F)(F)F)cc(N4CCN[C@@H](C)C4)n3)c21 (stereo partly drawn) [Example 114]	3.16 to 10 nM	5.01 nM	13	D (a ratio of between 10 and 20)	31.6 to 100 nM	63.1 nM
COC1(C)C(=O)Nc2nccc(-c3cc(Cl)cc(N4CCN[C@@H](C)C4)n3)c21 (stereo partly drawn) [Example 115]	3.16 to 10 nM	10 nM	12	D (a ratio of between 10 and 20)	100 to 316 nM	158 nM
C[C@@H](O)[C@H]1CN(c2cc(C(F)(F)F)cc(-c3ccnc4c3C(C)(C)C(=O)N4)n2)CCN1 [Example 116]	3.16 to 10 nM	5.01 nM	10	D (a ratio of between 10 and 20)	100 to 316 nM	126 nM
